From the NIST ThermoML archive (doi:10.1021/je049816w)

Conditions: Liquid, Ebulliometric method (Recirculating still)

CCOC(C)OCC [1,1-diethoxyethane]
Conditions	vapor or sublimation pressure [kPa]
328.35 K	19
341.62 K	32.1
345.13 K	36.7
348.33 K	41.1
353.38 K	49.2
357.95 K	57.9
361.96 K	66.1
364.68 K	72.3
366.99 K	77.9
369.09 K	83.1
371.7 K	90.1
373.41 K	94.8
375.27 K	100
